Assay results from US4973603A, “Platelet activating factor antagonist and methods of use therefor” (priority 1989, dated 1990).
Where two headings read alike, the source gives them in different places. Each block holds one molecule with its values, some of them ahead of it.

Columns and labels:
gastric mucosa [1] = conditions: 1 hour; for Mean Score: scale 0-3 (0 = normal mucosa)
Description: Robert and Szabo, In: Selye's Guide to Stress Research, (Vol. 2, A. Selye, Ed.) New York; Van Nostrand Reinhold Co., pp. 22-46 (1983); and Robert et al., Gastroenterology, 77:433-443 (1979). Experimental groups of 5-11 rats (Charles River CD) were fasted for 24 hours before the administration of either aspirin, Formula I or indomethacin by a rubber stomach tube (Rusch No. 8). The animals were killed 1 hour later by carbon dioxide asphyxiation. At that time, 4 ml of 10% aqueous buffered formaldehyde (formalin) was injected directly into the stomach of each animal. […] After 5 minutes of in situ fixation, the stomach and proximal duodenum were removed, opened along the greater curvature, pinned on a cork with mucosa upward, and immersed in 10% formaldehyde until further processing. Szabo, S. et al., J. Pharmacol. Meth., 13:59-66 (1985). The gastric lesions were then evaluated by direct visual inspection.
For comparative purposes, a semiquantitative scale of 0-3 was used to assess the extent of gastric mucosal lesions. Szabo et al., Science, 214:200-202 (1981); and Szabo et al., Gastroenterology, 85:1384-1390 (1983). According to this scale, a score of 0 indicates a normal mucosa; 1 represents the appearance of between 1 and 4 small petechiae; 2 indicates the presence of 5 or more petechiae or hemmorhagic streaks up to 4 mm in length; 3 represents the appearance of erosions longer than 5 mm or confluent hemmorrhages.

arachidonic acid = assay: The Mouse Ear Edema Test (arachidonic acid-induced skin edema); format: in vivo, mouse (Charles River CD-1, female); conditions: 1 hour before arachidonic acid (0.5 mg)
From the text: The direct application of arachidonic acid to skin, such as the mouse ear, produces an edematous response which is believed to be mediated by eicosanoids resulting from the actions of both cyclooxygenase and lipoxygenase systems. J. M. Young, D. A. Spires, C. J. Bedford, B. Wagner, S. J. Ballaron and L. M. DeYoung, J. Invest. Dermatol. 82:367-371 (1984); E. E. Opas, R. J. Bonney, and J. L. Hanes J. Invest. Dermatol. 84:253-256 (1985). PAF has been reported to cause the release of arachidonic acid, and as a result, gives rise to increased levels of eicosanoids in the exposed tissues. F. H. Chilton, J. T. Flaherty, C. E. Walsh, M. J. Thomas, R. L. Wykle, L. R. DeChatelet and B. M. Waite, J. Biol. Chem., 257:5402-5407 (1982). Thus, the mouse ear edema test can be used to discover substances which antagonize the effects of PAF.
The test drugs were dissolved in 10 μl ethanol and applied to the inner surface of the left ears of Charles River CD-1 female mice. Control values were obtained by applying 10 μl of ethanol to the right ear so that each mouse served as its own control. One hour later, arachidonic acid (0.5 mg/ear in 10 μl ethanol) was applied to both ears and allowed to act on the skin for one hour. The mice were then killed by cervical dislocation and the ears removed so that all tissue samples were of equivalent areas. The extent of edema in each sample was measured by weighing on an analytical balance.

[2] = tested on: platelet activating factor (PAF); assay: PAF Induced Mortality; format: in vivo, mouse (Charles River CD-1, female); conditions: for protective effect (in words): compared with Formula I
Description: The induction of mortality by the injection of low doses of PAF into mice has been described as a method for assessing the effectiveness of agents to antagonize the anaphylactic properties of PAF by J. M. Young, P. J. Maloney, S. W. Jubb and J. S. Clarke, in Prostaglandins, 30:545-551 (1985). Charles River CD-1 female mice (25-30 g) were given intraperitoneal injections of PAF (10 μg) dissolved in 100 μl of 5% ethanol-saline. […] Test drugs were orally administered in 50 μl of peanut oil one hour prior to PAF injection. Control mice were dosed with vehicle only. Mortality was assessed by counting survivors at one hour, two hours, and twenty four hours after the PAF injection.

gastric mucosa [3] = conditions: common adverse effect of consumption; cited from earlier work
[4] = tested on: platelet activating factor (PAF); assay: PAF Induced Paw Edema in the Mouse; format: in vivo, mouse (Charles River CD-1, female); conditions: 1 hour before PAF (1 ug/paw), 15 min after PAF
Description: The experimental procedure was adapted from Calhoun et al., Agents & Actions, 21:306-309 (1987). Charles River CD-1 female mice (20-25 G) were given a dose of Formula I, or phenidone, using peanut oil as a carrier. Control mice were given doses of the carrier alone. The drugs were administered orally in a 50 μl volume of peanut oil. One hour later, 1.0 μg of PAF dissolved in 50 μl of 5% ethanol-saline was injected subcutaneously into the plantar surface of the right hind paw. The volume of this injected foot to the level of the lateral malleous was measured by water displacement immediately before drug administration and again 15 minutes after PAF injection.
The effectiveness of each compound was analyzed in the following manner. The individual paw volumes were compared by a paired t test analysis in which predrug paw volumes were compared to paw volumes 15 minutes after PAF injection to determine the level of statistical significance. The percent inhibition of edema volume was obtained from the ratio of the mean predrug volume to the mean volume after PAF.

[5] = tested on: platelet activating factor (PAF); conditions: reported by Calhoun et al., Agents & Actions, 21:306-309 (1987); cited from earlier work
[6] = 40 mg/kg oral, 1 hr after PAF (10 μg i.p.)
[7] = 40 mg/kg oral, 2 hrs after PAF (10 μg i.p.)
[8] = 40 mg/kg oral, 24 hrs after PAF (10 μg i.p.)
[9] = 20 mg/kg oral, 1 hr after PAF (10 μg i.p.)
[10] = 20 mg/kg oral, 2 hrs after PAF (10 μg i.p.)
[11] = 20 mg/kg oral, 24 hrs after PAF (10 μg i.p.)

Compound: COc1ccc2c(c1)c(CC(=O)O)c(C)n2C(=O)c1ccc(Cl)cc1 [Indomethacin, indomethacin]
Incidence (rats with lesions/total tested) (gastric mucosa [1]; 10 mg/kg by stomach tube): 2/5
Mean Score (gastric mucosa [1]; 10 mg/kg by stomach tube): 0.6
Incidence (rats with lesions/total tested) (gastric mucosa [1]; 20 mg/kg by stomach tube): 6/11
Mean Score (gastric mucosa [1]; 20 mg/kg by stomach tube): 0.77
% Inhibition of Edema (arachidonic acid; 0.05 mg/ear topical): 24.1%
% Inhibition of Edema (arachidonic acid; 0.10 mg/ear topical): 21.8%

Mean Score (gastric mucosa [1]; 100 mg/kg by stomach tube): 1.9
Compound: CC(=O)Oc1ccccc1C(=O)O [Aspirin, aspirin]

Compound: O=C1CCN(c2ccccc2)N1 [Phenidone, phenidone, reference compound]
Survivors (%) [2, 6]: 20%
Survivors/N [2, 6]: 1/5
Survivors (%) [2, 7]: 20%
Survivors/N [2, 7]: 1/5
Survivors (%) [2, 8]: 20%
Survivors/N [2, 8]: 1/5
protective effect (in words) [2]: less protective than Formula I, particularly at longer time intervals
gastrointestinal damage (in words) (gastric mucosa [3]): gastrointestinal damage, generally manifested as bleeding and/or frank ulceration
% Inhibition of Edema (arachidonic acid; 0.063 mg/ear topical): 15.4%
% Inhibition of Edema (arachidonic acid; 0.13 mg/ear topical): 26.6%
% Inhibition of Edema (arachidonic acid; 0.25 mg/ear topical): 24.4%
% Inhibition of Edema ([4]; 40 mg/kg oral): 20.4%
% Inhibition of Edema ([4]; 80 mg/kg oral): 35.7%
effectiveness against PAF edema (in words) [5]: effective against PAF edema

Compound: COc1ccc2cc([C@H](C)C(=O)O)ccc2c1 [Naproxen, naproxen, reference compound]
Survivors (%) [2, 9]: 40%
Survivors/N [2, 9]: 4/10
Survivors (%) [2, 10]: 40%
Survivors/N [2, 10]: 4/10
Survivors (%) [2, 11]: 20%
Survivors/N [2, 11]: 2/10
Survivors (%) [2, 6]: 100%
Survivors/N [2, 6]: 5/5
Survivors (%) [2, 7]: 60%
Survivors/N [2, 7]: 3/5
Survivors (%) [2, 8]: 60%
Survivors/N [2, 8]: 3/5
protective effect (in words) [2]: less protective than Formula I, particularly at longer time intervals
gastrointestinal damage (in words) (gastric mucosa [3]): gastrointestinal damage, generally manifested as bleeding and/or frank ulceration
